Earlier results in patent US7718201B2, “Method of inducing liver phase II enzymes” (Access Business Group International LLC, priority 2005, dated 2010).

Test system: quinone reductase in Hepa1c1c7 cells
Details: reference values; broccoli dependent on variety, form, extraction conditions

In the case of C[S+]([O-])CCCCN=C=S (stereo not shown) [sulforaphane], the “Phase II enzyme induction activity (reported)” value is listed as 10^6 U/g.
